“And” between values parts separate entries of the source, which are not always exact repeats. Equal entries are not always repeated.
Experiments:
plasmid DNA [1] = assay: absorption of free molecules before and after addition of plasmid DNA; assay type: physicochemical; parameters: Absorption maxima free dye / Absorption maxima DNA bound dye: unit not given here
Method: (§1) Plasmid dsDNA was purified using a Qiagen Maxiprep kit and used in the supercoiled form for absorption and fluorescence studies. E. coli total RNA was bought from Ambion, dA/dT and dG/dC homopolymers were purchased from Amersham Biosciences. Calf thymus (CT) high-molecular weight DNA and Hoechst 33258 were obtained from Sigma-Aldrich. Ethidium bromide was purchased from Amresco.
(§2) Spectrometry and fluorimetry were performed using a SpectraMax384 (Molecular Devices) and a Luminescence Spectrometer LS50B (Perkin Elmer). Fluorescence emission of compound I in complex with DNA and RNA was measured in 50 mM Na phosphate buffer, pH 7.2 at room temperature. Before use, total E. coli RNA was heated to 100° C. for 1 min and immediately transferred on ice for 5 min before mixing with compound I solution. All measurements were carried out at room temperature (20-23° C.) in solutions protected from light and incubated for ˜10-15 min after dilution. The units of b/dye and bp/dye are defined as moles of RNA bases or DNA base pairs per mole of dye. Quantum yield was measured using quinine sulphate as standard as described in (Iupac Commission on Photochemistry, EPA Newsletter of November 1986, 21-29) using FLUOROMAX-3 Spex Spectrofluorometer (HORIBA) and UVIKON XL Spectrophotometer (SECOMAM).
(§3) Although compound I also stains mitotic chromosomes (FIG. 1D), theoretically it was possible that it binds specifically to DNA-associated proteins (for example histones) rather than to nucleic acids. To resolve this issue, the absorption and emission spectra of free compound I before and after addition of dsDNA were recorded. […] Molar extinction coefficient (EC) of free compound I at 391 nm was measured at 10,800 cm^−1 M^−1. In the presence of ds plasmid DNA the absorption peaks of compound I at 373 and 391 nm decreased, and a new peak appears with a maximum at 435 nm (FIG. 1E). An overlay of the absorption spectra in complex with dsDNA at different bp per dye ratios gives a single isosbestic point at 398 nm. Free compound I fluoresces around 438 nm (the exact position of the peak depends on the excitation wavelength). […] At the same time, a new peak evolves with a maximum around 484 nm (FIG. 1F). The exact maximum of fluorescence of compound I/DNA complexes varies insignificantly as a function of the dye/bp ratio and/or base pairs composition of the nucleic acids. […] The quantum yield for compound I (excited at 435 nm) at 5 μM in 50 mM Na-phosphate, pH 7.2, was determined to be 2.7% for free dye and 13.8% in admixture with 50 μM CT DNA.
(§4) To get a further insight into how the structural properties of compound I contribute to its binding to DNA, the inventors analysed fourteen structural analogues present in the compound library. Although several of these compounds are fluorescent in vivo, this property went undetected in the initial screen most likely due to the latency period before the appearance of the signal (see below). To evaluate the activity of compound I-like molecules three tests were used: (1) in vivo, the inventors incubated human fibroblasts in the presence of the molecules and scored nuclear fluorescence in the microscope; (2 and 3) in vitro, the inventors looked at the absorption and fluorescence of free molecules before and after addition of plasmid DNA. […] With the exception of compound I and analogues 8 and 12, accurate in vitro measurement of the fluorescence intensities was impossible because the emission peaks for the free molecules were too close to that for the DNA-bound dye. This affected the height of the dye/DNA peaks.

plasmid DNA [2] = assay: fluorescence of free molecules before and after addition of plasmid DNA; assay type: physicochemical; parameters: Fluorescence maxima free dye / Fluorescence maxima DNA bound dye: unit not given beside the values
Method: as §1, §2, §3, §4

[3] = tested on: ds plasmid DNA or heat-denatured E. coli RNA; assay: fluorescence titration with dsDNA versus RNA (selectivity); assay type: binding; settings: for emission strength with DNA relative to RNA: 50 μM DNA or RNA
Method: as §1, §2
A number of known fluorescent dyes bind preferentially to dsDNA, while others, like the SYTO dyes, bind similarly well to dsDNA, ssDNA and RNA (Haugland, R. P. et al., supra). Knowing these properties is important to the design of experiments where one or another (or several) type(s) of nucleic acids may be present. To investigate the selectivity of compound I, the inventors have compared fluorescence intensities at 484 nm of the dye incubated with ds plasmid DNA or heat-denatured E. coli RNA. […] At higher dye/b or dye/bp ratio, the difference was smaller (1.8-fold at dye/b(bp) ratio 0.2), meaning that elevated amounts of dye could saturate both types of nucleic acids. The inventors then performed the experiment in the opposite sense, i.e. titrating a fixed amount of compound I at 1 μM with increasing amounts of DNA and RNA.

live mouse fibroblasts = assay: photoactivation of nuclear fluorescence in live cells (time-lapse video microscopy); assay type: cell-based; settings: 5 μM, continuous illumination, Alexa488/FITC filter
Method: Compound I at 5 μM was added directly into the cell medium 10 min before observation in an inverted microscope Zeiss Axiovert 200M with a 100 W mercury lamp. Time lapse images were acquired using CoolSnap HQ (Photometrics, Inc.) black and white camera driven by the Metamorph software (Universal Imaging). All experiments were carried out using 40× or 63× (FIGS. 1C and D) oil immersion Apochromat Zeiss objectives. To measure the fluorescence intensities, an oval region was drawn inside of each nucleus using Metamorph software and integrated intensities (nuclear surface multiplied by the average pixel value) were logged for each image.
To quantify this effect, live mouse fibroblasts were incubated in the presence of 5 μM compound I and time-lapse video microscopy was used to film the cells. Nuclear fluorescence develops slowly in the nuclei of cells treated with compound I and illuminated continuously using a standard Alexa488/FITC filter set (475AF40, 535AF45) (FIG. 5A). Fluorescence peaked after 8 min of illumination and then started to fade (FIG. 5C), most likely reflecting the “bleaching” of compound I. The photoactivation concerned only the cells in the illuminated field, as nuclei of cells immediately outside of the illuminated field remained imperceptible (non-fluorescent). […]

[4] = free molecule, before addition of plasmid DNA

COc1ccc2c(c1)c(C)nc1c3ccc(OC)cc3c(NCCCN(C)C)nc21 [Compound I, N′-(2,8-dimethoxy-12-methyl-dibenzo[c,h][1,5]naphthyridin-6-yl)-N,N-dimethyl-propane-1,3-diamine]
Absorption maxima DNA bound dye (plasmid DNA [1]; after addition of plasmid DNA): 435
isosbestic point of absorption spectra (plasmid DNA [1]; complex with dsDNA at different bp per dye ratios): 398 nm
absorption maxima of free dye (plasmid DNA [1]; free compound): 224 nm and 245 nm and 283 nm and 326 nm and 373 nm and 391 nm
Molar extinction coefficient (EC) (plasmid DNA [1]; free dye at 391 nm): 10,800 cm^−1 M^−1
Absorption maxima free dye (plasmid DNA [1]; [4]): 394
absorption maximum of new peak (plasmid DNA [1]; in the presence of ds plasmid DNA): 435 nm
emission maximum of new peak upon DNA binding (plasmid DNA [2]; DNA-bound): around 484 nm
hypsochromic shift of the 438 nm emission peak upon DNA binding (plasmid DNA [2]; DNA-bound): 426 nm
Fluorescence maxima DNA bound dye (plasmid DNA [2]; after addition of plasmid DNA): 484
emission peak of free dye (plasmid DNA [2]; free compound): around 438 nm
Fluorescence maxima free dye (plasmid DNA [2]; [4]): 438
emission maximum (plasmid DNA [2]; plasmid DNA at bp/dye ratio 40): 472 nm
saturation of fixed amount of dye by RNA (not saturated) ([3]; 1 μM dye): > 250 b/dye
saturation of fixed amount of dye by dsDNA ([3]; 1 μM dye): ~30 bp/dye
fluorescence with dsDNA relative to RNA ([3]; 1 μM dye titrated with DNA and RNA, same b(bp)/dye ratios): 2.5-3.6
emission strength with DNA relative to RNA ([3]; dye/b(bp) ratio 0.2): 1.8 fold
emission strength with DNA relative to RNA ([3]; low dye/bp and dye/b ratios, 484 nm): 6 fold
illumination time to peak/plateau of nuclear fluorescence (live mouse fibroblasts): 8 min
